Starred links: 1 amine or outer side, 2 acyl side, 3 side chain; linkers in the order of their positions; H or OH if unused. Positions of bridges follow the written chain, without caps; N, C: chain ends. Non-standard residues stand in square brackets, D forms with d. Residues, ends and D or L forms follow the SMILES beside them. *: point of attachment. X1 = NC1=N[C@@H]([C@H](N[*:1])C(=O)[*:2])C[C@H](O)N1; ΔAla(Z-3-ureido) = NC(=O)N/C=C(\N)C(=O)O; β3hOrn = NCCC[C@H](N)CC(=O)*; Dap = NC[C@H](N)C(=O)O
System: human maximum recommended daily dose, FDA database
Assay: DSSTox (FDAMDD) FDA Maximum (Recommended) Daily Dose Database
Settings: stronger effect = lower value
Procedure, shortened: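 MRDD values come from clinical trials with daily oral dosing, usually for 3–12 months, for the average adult, in mg/day converted to mg/kg-bw/day assuming 60 kg. Antineoplastic mg/m2 doses are divided by 37. Activity score maps log10(1/MRDD mmol) onto 1–100.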

[1] = TherapeuticCategory: antibacterial
[2] = TherapeuticCategory: antiarrhythmic

Work on `CC(=O)OCC1=C(C(=O)O)N2C(=O)[C@@H](NC(=O)CC#N)[C@H]2SC1` yielded a maximum recommended daily dose (mmol/kg-bw/day) [1] of 0.295.
`NC(=O)NNc1ccccc1` gave a maximum recommended daily dose (mmol/kg-bw/day) (TherapeuticCategory: antipyretic) of 0.165.
With `NS(=O)(=O)c1cc2c(cc1Cl)NC(CSCc1ccccc1)=NS2(=O)=O` the maximum recommended daily dose (mmol/kg-bw/day) (TherapeuticCategory: diuretic, antihypertensive) was 0.00771.
With `NCCC[C@H](N)CC(=O)N[C@H]1CNC(=O)[C@H]([C@H]2C[C@H](O)NC(N)=N2)NC(=O)/C(=C/NC(N)=O)NC(=O)[C@H](CO)NC(=O)[C@H](CO)NC1=O` (β3hOrn-[Dap]SS[ΔAla(Z-3-ureido)][X1]; lactam 1-C) the maximum recommended daily dose (mmol/kg-bw/day) [1] was 0.0973.
`N#CC(CCN1CCC(C(=O)O)(c2ccccc2)CC1)(c1ccccc1)c1ccccc1` was tested, and the maximum recommended daily dose (mmol/kg-bw/day) (TherapeuticCategory: antiperistaltic, antidiarrheal) was 0.000313.
Compound `CCN(CC)CCNC(=O)c1ccc(N)cc1` has a maximum recommended daily dose (mmol/kg-bw/day) [2] of 0.212.
`CC(C)(C#N)c1cc(Cn2cncn2)cc(C(C)(C)C#N)c1` showed a maximum recommended daily dose (mmol/kg-bw/day) (TherapeuticCategory: androgen) of 5.69e-05.
For `NC1=NC(=O)C(c2ccccc2)O1` (stereo not given), the maximum recommended daily dose (mmol/kg-bw/day) (TherapeuticCategory: CNS stimulant) was 0.0107.
`CNCCCN1c2ccccc2CCc2ccccc21` was tested, and the maximum recommended daily dose (mmol/kg-bw/day) (TherapeuticCategory: antidepressant) was 0.0188.
Work on `CCOC(=O)[C@H](CCc1ccccc1)N[C@H]1CCc2ccccc2N(CC(=O)O)C1=O` yielded a maximum recommended daily dose (mmol/kg-bw/day) (TherapeuticCategory: antihypertensive, ACE inhibitor) of 0.00313.
Compound `COc1ccc2c3c1O[C@H]1C(=O)CC[C@@]4(O)[C@@H](C2)N(C)CC[C@]314` has a maximum recommended daily dose (mmol/kg-bw/day) (TherapeuticCategory: narcotic analgesic) of 0.0169.
`CCC[C@@H]1O[C@@H]2C[C@H]3[C@@H]4CCC5=CC(=O)C=C[C@]5(C)[C@H]4[C@@H](O)C[C@]3(C)[C@]2(C(=O)CO)O1` gave a maximum recommended daily dose (mmol/kg-bw/day) (TherapeuticCategory: anti inflammatory) of 1.01e-05.
Compound `NC[C@@H]1O[C@H](O[C@H]2[C@@H](O)[C@H](O[C@@H]3[C@@H](O)[C@H](N)C[C@H](N)[C@H]3O[C@H]3O[C@H](CN)[C@@H](O)[C@H](O)[C@H]3N)O[C@@H]2CO)[C@H](N)[C@@H](O)[C@@H]1O` has a maximum recommended daily dose (mmol/kg-bw/day) [1] of 0.163.
`CCOc1c(N2CCOCC2)cnn(C)c1=O` was tested, and the maximum recommended daily dose (mmol/kg-bw/day) (TherapeuticCategory: analgesic, anti inflammatory) was 0.0139.
For `CCN(CC)CCOC(=O)C(Cc1cccc2ccccc12)CC1CCCO1` (stereo not given), the maximum recommended daily dose (mmol/kg-bw/day) (TherapeuticCategory: vasodilator) was 0.0261.
In the case of `N=C(N)c1ccc(OCCCCCOc2ccc(C(=N)N)cc2)cc1`, the maximum recommended daily dose (mmol/kg-bw/day) (TherapeuticCategory: antiprotozoal) is reported as 0.0118.
For `CCOC(=O)Nc1ccc2c(c1)N(C(=O)CCN1CCOCC1)c1ccccc1S2`, the maximum recommended daily dose (mmol/kg-bw/day) [2] was 0.0351.
For `CCCN(CC)C(CC)C(=O)Nc1c(C)cccc1C` (stereo not given), the maximum recommended daily dose (mmol/kg-bw/day) (TherapeuticCategory: local anesthetic) was 0.0241.
Compound `COc1ccc(CC2c3cc(OC)c(OC)cc3CC[N+]2(C)CCC(=O)OCCCCCOC(=O)CC[N+]2(C)CCc3cc(OC)c(OC)cc3C2Cc2ccc(OC)c(OC)c2)cc1OC` (stereo not given) has a maximum recommended daily dose (mmol/kg-bw/day) (TherapeuticCategory: skeletal muscle relaxant) of 0.000402.
In the case of `C=C[C@H]1CN2CC[C@H]1C[C@@H]2[C@@H](O)c1ccnc2ccc(OC)cc12`, the maximum recommended daily dose (mmol/kg-bw/day) (TherapeuticCategory: anthiarrythmic) is reported as 0.0308.
`COC(=O)[C@H]1[C@H]2C[C@@H]3c4[nH]c5ccccc5c4CCN3C[C@H]2C[C@@H](OC(=O)c2cc(OC)c(OC)c(OC)c2)[C@@H]1OC` gave a maximum recommended daily dose (mmol/kg-bw/day) (TherapeuticCategory: antihypertensive) of 2.89e-05.
`OC[C@H]1O[C@](O)(CO)[C@@H](O)[C@@H]1O` showed a maximum recommended daily dose (mmol/kg-bw/day) (TherapeuticCategory: fluid and nutrient replenisher, ferric form as hematinic) of 2.31.
`CC[C@H](CC[C@@H](C)[C@H]1CC[C@H]2[C@@H]3CC=C4C[C@@H](O)CC[C@]4(C)[C@H]3CC[C@]12C)C(C)C` showed a maximum recommended daily dose (mmol/kg-bw/day) (TherapeuticCategory: anticholinesteremic) of 0.241.
With `CCC1(C)OC(=O)N(C)C1=O` (stereo not given) the maximum recommended daily dose (mmol/kg-bw/day) (TherapeuticCategory: anticonvulsant) was 0.255.
Compound `CC(C)(O/N=C(\C(=O)N[C@@H]1C(=O)N2C(C(=O)[O-])=C(C[n+]3ccccc3)CS[C@H]12)c1csc(N)n1)C(=O)O` has a maximum recommended daily dose (mmol/kg-bw/day) [1] of 0.243.
`CC(=O)[C@@]12O[C@](C)(c3ccccc3)O[C@@H]1C[C@H]1[C@@H]3CCC4=CC(=O)CC[C@]4(C)[C@H]3CC[C@@]12C` gave a maximum recommended daily dose (mmol/kg-bw/day) (TherapeuticCategory: acne treatment) of 0.00557.
Compound `Clc1ccc(C/C(=C\CN2CCCC2)c2ccccc2)cc1` has a maximum recommended daily dose (mmol/kg-bw/day) (TherapeuticCategory: antihistaminic) of 0.00481.
Compound `CCCc1nn(C)c2c(=O)[nH]c(-c3cc(S(=O)(=O)N4CCN(C)CC4)ccc3OCC)nc12` has a maximum recommended daily dose (mmol/kg-bw/day) (TherapeuticCategory: erectile disfunction treatment) of 0.00352.
`O=C1Cc2cc(CCN3CCN(c4nsc5ccccc45)CC3)c(Cl)cc2N1` showed a maximum recommended daily dose (mmol/kg-bw/day) (TherapeuticCategory: antipsychotic, dopamine receptor antagonist, seratonin receptor antagonist) of 0.00647.
In the case of `CC(=O)Oc1ccccc1C(=O)O`, the maximum recommended daily dose (mmol/kg-bw/day) (TherapeuticCategory: analgesic, antipyretic, anti inflammatory) is reported as 0.37.

Reference: PubChem BioAssay AID1195 (EPA DSSTox, 2008)
